From patent US20250134907A1, “FUSED DIAZEPINES AS AGONISTS OF THE INSULIN-LIKE 3 (INSL3) PEPTIDE RECEPTOR RXFP2 AND METHODS OF USE THEREOF” (The United States of America,as represented by the …, priority 2022, published 2025)
Like-named read-outs stand apart in the source and are kept apart here.

Legend:
[1] = Pharmacokinetic study in female mice (plasma, liver, bone); assay type: in vivo, female C57/BL6 mice
Source text: FIG. 24A depicts the plasma profile. FIG. 24B depicts the liver profile and FIG. 24C depicts the bone profiles. The actual concentration (ng/g) is the detected value (ng/mL) multiplied by 4. […] 40% HP-b-CD-75% PEG300. Three mice were used per time point. Results are expressed as the mean SEM.
2-hydroxypropyl-beta-cyclodextrin (HPBCD).
FIG. 24A depicts the plasma profile. FIG. 24B depicts the liver profile and FIG. 24C depicts the bone profiles. The actual concentration (ng/g) is the detected value (ng/mL) multiplied by 4. […] 40% HP-b-CD-75% PEG300. Three mice were used per time point. Results are expressed as the mean±SEM.

[2] = tested on: gubernaculum of female embryos; experiment: Gubernaculum development in female embryos of treated pregnant mice; assay type: in vivo, C57BL/6J mice; details: 30 mg/kg intraperitoneal to pregnant females, embryonic day 12.5 to 17.5
Source text: The role of INSL3 and RXFP2 in gubernaculum development for the initial transabdominal descent of the testis during embryogenesis has been widely characterized in Insl3^-/- and Rxfp2^-/- mouse models of cryptorchidism. […] The gubernaculum is composed of the gubernacular bulb and cord, and it has begun invagination into the abdominal wall in preparation for the inguinoscrotal stage of testicular descent, which will finalize after birth. […] The hypothesis for our experiment is that by injecting pregnant females with the RXFP2 agonists during this embryonic development window, gubemaculum development could be induced in female embryos, which has been previously shown in female embryos overexpressing INSL3. […] For this assay, whole embryos were fixed in 10% formaldehyde for 24 hours. Afterwards, embryos were washed twice with PBS for 1 hour, followed by 3 consecutive washes with increasing concentrations of ethanol (30%, 50% and 70%) for 30 minutes. Fixed embryos were prepared for histology using an automatic tissue processor (Leica TP1020, Leica Biosystems, Germany), embedded in paraffin wax, and 5-7 μm sagittal serial sections were cut using an automated rotary microtome (Leica RM2255, Leica Biosystems, Germany). […] At least 4 embryos were analyzed per treatment group.

[3] = bone, PO 10 mg/kg, one administration
[4] = liver, PO 10 mg/kg, one administration
[5] = plasma, PO 10 mg/kg, one administration

O=C1Nc2ccc(-c3cc(C(F)(F)F)cc(C(F)(F)F)c3)cc2C(=O)N2CCN(C(=O)COc3ccc(OC(F)(F)F)cc3I)C[C@@H]12 [Example 187, (S)-8-(3,5-bis(trifluoromethyl)phenyl)-2-(2-(2-iodo-4-(trifluoromethoxy)phenoxy)acetyl)-1,3,4,12a-tetrahydrobenzo[e]pyrazino[1,2-a][1,4]diazepine-6,12 (2H, 11H)-dione]
Maximum serum concentration ([1]; Table 10, IV 3 mg/kg): 3.25 µg/mL | AUCInf ([1]; bone, IV 3 mg/kg): 3687 ng·h/g | AUClast ([1]; bone, IV 3 mg/kg): 3650 ng·h/g | AUCInf [1, 3]: 2190 ng·h/g | AUClast [1, 3]: 1897 ng·h/g | AUCInf ([1]; bone, PO (QD*3) 10 mg/kg): 2573 ng·h/g | AUClast ([1]; bone, PO (QD*3) 10 mg/kg): 2539 ng·h/g | Cmax ([1]; female, C57/BL6, mouse, bone, iv, 3 mg/kg, IV 3 mg/kg): 1070 ng/g | Cmax ([1]; female, C57/BL6, mouse, bone, po, 10 mg/kg, PO 10 mg/kg, one administration): 174 ng/g | Cmax ([1]; female, C57/BL6, mouse, bone, po, 10 mg/kg, PO (QD*3) 10 mg/kg): 298 ng/g | Kp ([1]; female, C57/BL6, mouse, bone/plasma, iv, 3 mg/kg, IV 3 mg/kg, read-out: AUClast Ratio (Bone/Plasma)): 1.14 | Kp ([1]; female, C57/BL6, mouse, bone/plasma, iv, 3 mg/kg, IV 3 mg/kg, read-out: Cmax Ratio (Bone/Plasma)): 0.419 | Kp ([1]; female, C57/BL6, mouse, bone/plasma, po, 10 mg/kg, PO 10 mg/kg, one administration, read-out: AUClast Ratio (Bone/Plasma)): 0.725 | Kp ([1]; female, C57/BL6, mouse, bone/plasma, po, 10 mg/kg, PO 10 mg/kg, one administration, read-out: Cmax Ratio (Bone/Plasma)): 0.475 | Kp ([1]; female, C57/BL6, mouse, bone/plasma, po, 10 mg/kg, PO (QD*3) 10 mg/kg, read-out: AUClast Ratio (Bone/Plasma)): 0.779 | Kp ([1]; female, C57/BL6, mouse, bone/plasma, po, 10 mg/kg, PO (QD*3) 10 mg/kg, read-out: Cmax Ratio (Bone/Plasma)): 0.766 | Cmax ([1]; female, C57/BL6, mouse, liver, iv, 3 mg/kg, IV 3 mg/kg): 28000 ng/g | Cmax ([1]; female, C57/BL6, mouse, liver, po, 10 mg/kg, PO 10 mg/kg, one administration): 3210 ng/g | Cmax ([1]; female, C57/BL6, mouse, liver, po, 10 mg/kg, PO (QD*3) 10 mg/kg): 3570 ng/g | Kp ([1]; female, C57/BL6, mouse, liver/plasma, iv, 3 mg/kg, IV 3 mg/kg, read-out: AUClast Ratio (Liver/Plasma)): 8.3 | Kp ([1]; female, C57/BL6, mouse, liver/plasma, iv, 3 mg/kg, IV 3 mg/kg, read-out: Cmax Ratio (Liver/Plasma)): 10.9 | Kp ([1]; female, C57/BL6, mouse, liver/plasma, po, 10 mg/kg, PO 10 mg/kg, one administration, read-out: AUClast Ratio (Liver/Plasma)): 9.23 | Kp ([1]; female, C57/BL6, mouse, liver/plasma, po, 10 mg/kg, PO 10 mg/kg, one administration, read-out: Cmax Ratio (Liver/Plasma)): 8.78 | Kp ([1]; female, C57/BL6, mouse, liver/plasma, po, 10 mg/kg, PO (QD*3) 10 mg/kg, read-out: AUClast Ratio (Liver/Plasma)): 7.64 | Kp ([1]; female, C57/BL6, mouse, liver/plasma, po, 10 mg/kg, PO (QD*3) 10 mg/kg, read-out: Cmax Ratio (Liver/Plasma)): 9.18 | AUC(0-inf) ([1]; female, C57/BL6, mouse, plasma, iv, 3 mg/kg, Table 10, IV 3 mg/kg, read-out: Area under the curve-AUCinf): 3200 ng·h/mL | AUC(0-t) ([1]; female, C57/BL6, mouse, plasma, iv, 3 mg/kg, Table 10, IV 3 mg/kg, read-out: Area under the curve-AUClast): 3190 ng·h/mL | C0 ([1]; female, C57/BL6, mouse, plasma, iv, 3 mg/kg, Table 10, IV 3 mg/kg, read-out: Concentration-C0): 3590 ng/mL | half-life ([1]; female, C57/BL6, mouse, plasma, iv, 3 mg/kg, Table 10, IV 3 mg/kg, read-out: Half life-t1/2 (converted)): 6.56 h | AUC(0-inf) ([1]; female, C57/BL6, mouse, plasma, iv, 3 mg/kg, plasma, IV 3 mg/kg, read-out: AUCInf): 3200 ng·h/mL | AUC(0-t) ([1]; female, C57/BL6, mouse, plasma, iv, 3 mg/kg, plasma, IV 3 mg/kg, read-out: AUClast): 3190 ng·h/mL | C0 ([1]; female, C57/BL6, mouse, plasma, iv, 3 mg/kg, plasma, IV 3 mg/kg, read-out: C0): 3590 ng/mL | half-life ([1]; female, C57/BL6, mouse, plasma, iv, 3 mg/kg, plasma, IV 3 mg/kg, read-out: t1/2 (converted)): 6.56 h | AUC(0-inf) ([1]; female, C57/BL6, mouse, plasma, po, 10 mg/kg, Table 10, POA single 10 mg/kg, read-out: Area under the curve-AUCinf): 2650 ng·h/mL | AUC(0-t) ([1]; female, C57/BL6, mouse, plasma, po, 10 mg/kg, Table 10, POA single 10 mg/kg, read-out: Area under the curve-AUClast): 2620 ng·h/mL | half-life ([1]; female, C57/BL6, mouse, plasma, po, 10 mg/kg, Table 10, POA single 10 mg/kg, read-out: Half life-t1/2 (converted)): 3.89 h | AUC(0-inf) ([1]; female, C57/BL6, mouse, plasma, po, 10 mg/kg, Table 10, POB QD × 3, 10 mg/kg, read-out: Area under the curve-AUCinf): 3270 ng·h/mL | AUC(0-t) ([1]; female, C57/BL6, mouse, plasma, po, 10 mg/kg, Table 10, POB QD × 3, 10 mg/kg, read-out: Area under the curve-AUClast): 3260 ng·h/mL | half-life ([1]; female, C57/BL6, mouse, plasma, po, 10 mg/kg, Table 10, POB QD × 3, 10 mg/kg, read-out: Half life-t1/2 (converted)): 5.88 h | AUC(0-inf) ([1]; female, C57/BL6, mouse, plasma, po, 10 mg/kg, plasma, PO 10 mg/kg, one administration, read-out: AUCInf): 2650 ng·h/mL | AUC(0-t) ([1]; female, C57/BL6, mouse, plasma, po, 10 mg/kg, plasma, PO 10 mg/kg, one administration, read-out: AUClast): 2620 ng·h/mL | C0 ([1]; female, C57/BL6, mouse, plasma, po, 10 mg/kg, plasma, PO 10 mg/kg, one administration, read-out: C0): 366 ng/mL | half-life ([1]; female, C57/BL6, mouse, plasma, po, 10 mg/kg, plasma, PO 10 mg/kg, one administration, read-out: t1/2 (converted)): 3.89 h | AUC(0-inf) ([1]; female, C57/BL6, mouse, plasma, po, 10 mg/kg, plasma, PO (QD*3) 10 mg/kg, read-out: AUCInf): 3270 ng·h/mL | AUC(0-t) ([1]; female, C57/BL6, mouse, plasma, po, 10 mg/kg, plasma, PO (QD*3) 10 mg/kg, read-out: AUClast): 3260 ng·h/mL | C0 ([1]; female, C57/BL6, mouse, plasma, po, 10 mg/kg, plasma, PO (QD*3) 10 mg/kg, read-out: C0): 389 ng/mL | half-life ([1]; female, C57/BL6, mouse, plasma, po, 10 mg/kg, plasma, PO (QD*3) 10 mg/kg, read-out: t1/2 (converted)): 5.88 h | bioavailability ([1]; female, C57/BL6, mouse, plasma, po, Table 10, POA single 10 mg/kg, read-out: Bioavailability-F): 24.8% | MRT last ([1]; female, C57/BL6, mouse, plasma, Table 10, IV 3 mg/kg, read-out: Mean residence time-MRTlast): 3.47 h | clearance ([1]; female, C57/BL6, mouse, plasma, Table 10, IV 3 mg/kg, read-out: Total clearance after IV administration-CLobs): 15.6 mL/min/kg | Vd ([1]; female, C57/BL6, mouse, plasma, Table 10, IV 3 mg/kg, read-out: Volume of distribution in steady state-VSSobs): 3.38 L/kg | Tmax ([1]; female, C57/BL6, mouse, bone, IV 3 mg/kg): 0.083 h | Tmax ([1]; female, C57/BL6, mouse, bone, PO 10 mg/kg, one administration): 3 h | Tmax ([1]; female, C57/BL6, mouse, liver, IV 3 mg/kg): 0.083 h | Tmax ([1]; female, C57/BL6, mouse, liver, PO 10 mg/kg, one administration): 1 h | MRT ([1]; female, C57/BL6, mouse, plasma, IV 3 mg/kg): 3.47 h | Tmax ([1]; female, C57/BL6, mouse, plasma, PO 10 mg/kg, one administration): 1 h | AUCInf ([1]; liver, IV 3 mg/kg): 26524 ng·h/g | AUClast ([1]; liver, IV 3 mg/kg): 26492 ng·h/g | AUCInf [1, 4]: 24170 ng·h/g | AUClast [1, 4]: 24146 ng·h/g | AUCInf ([1]; liver, PO (QD*3) 10 mg/kg): 24965 ng·h/g | AUClast ([1]; liver, PO (QD*3) 10 mg/kg): 24927 ng·h/g | AUC_%Extrap ([1]; plasma, IV 3 mg/kg): 0.258% | Cl_obs ([1]; plasma, IV 3 mg/kg): 15.6 mL/min/kg | Vss_obs ([1]; plasma, IV 3 mg/kg): 3.38 L/kg | AUC_%Extrap [1, 5]: 1.20% | F [1, 5]: 24.8% | AUC_%Extrap ([1]; plasma, PO (QD*3) 10 mg/kg): 0.265% | gubernaculum morphology in embryonic day 18.5 female embryos [2]: male-like invagination of the gubemaculum
